Earlier results in patent publication US12521484B2, “Irrigation system and methods of use” (Osteal Therapeutics, Inc., priority 2023, dated 2026).

Assays:
[1] = test system: multiple common PJI organisms
[2] = instillation of 50,000-100,000 μg/mL once or twice daily into the joint space; multiple patients

With `CN[C@H](CC(C)C)C(=O)N[C@H]1C(=O)N[C@@H](CC(N)=O)C(=O)N[C@H]2C(=O)N[C@H]3C(=O)N[C@H](C(=O)N[C@H](C(=O)O)c4cc(O)cc(O)c4-c4cc3ccc4O)[C@H](O)c3ccc(c(Cl)c3)Oc3cc2cc(c3O[C@@H]2O[C@H](CO)[C@@H](O)[C@H](O)[C@H]2O[C@H]2C[C@](C)(N)[C@H](O)[C@H](C)O2)Oc2ccc(cc2Cl)[C@H]1O` [vancomycin] as the compound, how does the “minimum biofilm eradication concentration (MBEC)” value [1] read?
Its value is “greater than 4,000 μg/mL”.

And the serum concentrations [2]?
The serum concentrations was “exceeding safe limits”.
